Drawing on ChEMBL document CHEMBL1139784, “Design and evaluation of a potential mutagen for Hepatitis C virus” (Bioorg Med Chem Lett, 2007), this text covers EC50 for one molecule.

The structures appear in SMILES notation.

The assay has as its system Hepatitis C virus. The assay is described as follows: Antiviral activity against HCV by viral replicon assay. In kind it is functional, organism-based, Hepacivirus hominis. Background: Replicon systems follow genome replication, usually without infectious particles.

For the molecule `CC(C)(C)C(=O)SCCOP(=O)(OCCSC(=O)C(C)(C)C)OC[C@H]1O[C@@H](n2cc3cc[nH]c3nc2=O)[C@H](O)[C@@H]1O`, the EC50 was 60 µM.

As a reminder, the EC50 is the concentration needed to bring the measured effect to its halfway point. Lower therefore signals higher potency in that assay.
